Measurements taken from patent US20260240847A1, “COMPOUNDS WITH ANTI-TUMOR ACTIVITY AGAINST CANCER CELLS BEARING TYROSINE KINASE INHIBITOR RESISTANT EGFR MUTATIONS” (BOARD OF REGENTS, THE UNIVERSITY OF TEXAS SYSTEM, priority 2019, published 2026).

Columns and labels:
Experiment in all cases: Ba/F3 cell viability, Cell Titer Glo
EGFR Ex19del/L792H = EGFR Ex19del/L792H (Homo sapiens, UniProt P00533, DEL746-750/L792H); settings: read-out: IC50 Values; Ba/F3 cells expressing EGFR Ex19del/L792H, 72 hours
Protocol: (§1) The transforming capability of the mutations was then evaluated by sustained cell viability following IL-3 deprivation. Activating EGFR mutant Ba/F3 cells were then screened against EGFR TKIs. Cell viability was determined by the Cell Titer Glo assay.
(§2) Ba/F3 cells expressing acquired atypical mutations spanning exons 18-21 were treated with inhibitors for 72 hours. […] Briefly, stable Ba/F3 cell lines were generated by retroviral transduction of Ba/F3 cell line for 12 hours. […] Three days after transduction, 2 μg/ml puromycin (Invitrogen) was added to the RPMI media. Cell lines were then grown in the absence of IL-3 for two weeks and cell viability was assessed every three days using the Cell Titer Glo assay (Progema).
(§3) Briefly, 2000-3000 cells per well were plated in 384-well plates (Greiner Bio-One) in technical triplicate. Cells were treated with seven different concentrations of tyrosine kinase inhibitors or vehicle alone at a final volume of 40 μL per well. After 3 days, 11 μL of Cell Titer Glo was added to each well. Plates were shaken for 15 minutes, and bioluminescence was determined using a FLUOstar OPTIMA multi-mode micro-plate reader (BMG LABTECH). Bioluminescence values were normalized to DMSO treated cells, and normalized values were plotted in GraphPad Prism using non-linear regression fit to normalized data with a variable slope.

EGFR L858R G796S = EGFR L858R G796S (Homo sapiens, UniProt P00533, G796S/L858R); settings: read-out: IC50 Values; Ba/F3 cells expressing EGFR L858R G796S, 72 hours
Protocol: as §1, §2, §3

EGFR L858R T790M V843I = EGFR L858R T790M V843I (Homo sapiens, UniProt P00533, L858R/T790M/V843I); settings: read-out: IC50 Values; Ba/F3 cells expressing EGFR L858R T790M V843I, 72 hours
Protocol: (§4) Cell viability was determined by the Cell Titer Glo assay.
(§5) Briefly, stable Ba/F3 cell lines were generated by retroviral transduction of Ba/F3 cell line for 12 hours. […] Three days after transduction, 2 μg/ml puromycin (Invitrogen) was added to the RPMI media. Cell lines were then grown in the absence of IL-3 for two weeks and cell viability was assessed every three days using the Cell Titer Glo assay (Progema).
as §3

EGFR Ex19del/T790M/G724S = EGFR Ex19del/T790M/G724S (Homo sapiens, UniProt P00533, DEL746-750/G724S/T790M); settings: read-out: IC50 Values; Ba/F3 cells expressing EGFR Ex19del/T790M/G724S, 72 hours
Protocol: as §4, §3

EGFR L858R/L792H = EGFR L858R/L792H (Homo sapiens, UniProt P00533, L792H/L858R); settings: read-out: IC50 Values; Ba/F3 cells expressing EGFR L858R/L792H, 72 hours
Protocol: as §1, §2, §3

EGFR Ex19delT790M = EGFR Ex19delT790M (Homo sapiens, UniProt P00533, DEL746-750/T790M); settings: read-out: IC50 Values; Ba/F3 cells expressing EGFR Ex19delT790M, 72 hours
Protocol: as §4, §5, §3

EGFR E709A = EGFR E709A (Homo sapiens, UniProt P00533, E709A); settings: read-out: IC50 Values; Ba/F3 cells expressing EGFR E709A, 72 hours
Protocol: as §4, §5, §3

EGFR L718Q = EGFR L718Q (Homo sapiens, UniProt P00533, L718Q); settings: read-out: IC50 Values; Ba/F3 cells expressing EGFR L718Q, 72 hours
Protocol: as §4, §5, §3

EGFR D770insNPG = EGFR D770insNPG (Homo sapiens, UniProt P00533, INS770NPG); settings: read-out: IC50 Values; Ba/F3 cells expressing EGFR D770insNPG, 72 hours
Protocol: as §4, §5, §3

EGFR Ex19del/T790M/G724S, sequence (P00533 with tags, fused parts or gaps G724S/DEL746-750/T790M): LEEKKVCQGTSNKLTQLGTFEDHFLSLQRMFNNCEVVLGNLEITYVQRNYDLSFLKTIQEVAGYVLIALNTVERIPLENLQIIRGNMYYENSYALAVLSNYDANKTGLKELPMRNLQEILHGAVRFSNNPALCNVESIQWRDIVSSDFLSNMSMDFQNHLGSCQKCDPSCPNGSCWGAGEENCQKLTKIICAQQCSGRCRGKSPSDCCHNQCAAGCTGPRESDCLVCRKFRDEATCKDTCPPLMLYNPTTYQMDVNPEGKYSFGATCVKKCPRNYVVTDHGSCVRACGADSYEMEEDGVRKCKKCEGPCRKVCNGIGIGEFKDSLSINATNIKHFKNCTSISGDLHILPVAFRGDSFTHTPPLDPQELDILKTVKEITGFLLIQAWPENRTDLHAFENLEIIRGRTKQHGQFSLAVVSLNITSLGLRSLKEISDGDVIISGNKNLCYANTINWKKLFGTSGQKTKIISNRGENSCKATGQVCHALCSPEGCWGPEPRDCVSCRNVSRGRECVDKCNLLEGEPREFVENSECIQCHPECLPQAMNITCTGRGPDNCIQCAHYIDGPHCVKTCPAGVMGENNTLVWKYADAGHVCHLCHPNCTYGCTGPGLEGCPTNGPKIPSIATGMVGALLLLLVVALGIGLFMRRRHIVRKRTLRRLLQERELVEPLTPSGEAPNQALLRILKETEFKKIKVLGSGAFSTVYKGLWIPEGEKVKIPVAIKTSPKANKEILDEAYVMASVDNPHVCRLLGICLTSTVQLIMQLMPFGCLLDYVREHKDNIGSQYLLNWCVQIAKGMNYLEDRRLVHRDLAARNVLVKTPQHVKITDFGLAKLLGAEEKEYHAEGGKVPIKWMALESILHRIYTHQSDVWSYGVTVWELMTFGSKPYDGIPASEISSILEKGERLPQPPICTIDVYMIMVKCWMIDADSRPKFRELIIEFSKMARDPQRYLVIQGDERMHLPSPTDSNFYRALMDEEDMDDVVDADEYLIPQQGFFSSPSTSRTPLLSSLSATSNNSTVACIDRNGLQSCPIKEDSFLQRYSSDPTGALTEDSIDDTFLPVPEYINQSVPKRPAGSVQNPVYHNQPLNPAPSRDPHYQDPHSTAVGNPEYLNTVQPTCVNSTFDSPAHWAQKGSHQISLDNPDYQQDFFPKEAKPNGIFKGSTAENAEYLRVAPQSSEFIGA
EGFR L858R G796S, sequence (P00533 25-1210 G796S/L858R): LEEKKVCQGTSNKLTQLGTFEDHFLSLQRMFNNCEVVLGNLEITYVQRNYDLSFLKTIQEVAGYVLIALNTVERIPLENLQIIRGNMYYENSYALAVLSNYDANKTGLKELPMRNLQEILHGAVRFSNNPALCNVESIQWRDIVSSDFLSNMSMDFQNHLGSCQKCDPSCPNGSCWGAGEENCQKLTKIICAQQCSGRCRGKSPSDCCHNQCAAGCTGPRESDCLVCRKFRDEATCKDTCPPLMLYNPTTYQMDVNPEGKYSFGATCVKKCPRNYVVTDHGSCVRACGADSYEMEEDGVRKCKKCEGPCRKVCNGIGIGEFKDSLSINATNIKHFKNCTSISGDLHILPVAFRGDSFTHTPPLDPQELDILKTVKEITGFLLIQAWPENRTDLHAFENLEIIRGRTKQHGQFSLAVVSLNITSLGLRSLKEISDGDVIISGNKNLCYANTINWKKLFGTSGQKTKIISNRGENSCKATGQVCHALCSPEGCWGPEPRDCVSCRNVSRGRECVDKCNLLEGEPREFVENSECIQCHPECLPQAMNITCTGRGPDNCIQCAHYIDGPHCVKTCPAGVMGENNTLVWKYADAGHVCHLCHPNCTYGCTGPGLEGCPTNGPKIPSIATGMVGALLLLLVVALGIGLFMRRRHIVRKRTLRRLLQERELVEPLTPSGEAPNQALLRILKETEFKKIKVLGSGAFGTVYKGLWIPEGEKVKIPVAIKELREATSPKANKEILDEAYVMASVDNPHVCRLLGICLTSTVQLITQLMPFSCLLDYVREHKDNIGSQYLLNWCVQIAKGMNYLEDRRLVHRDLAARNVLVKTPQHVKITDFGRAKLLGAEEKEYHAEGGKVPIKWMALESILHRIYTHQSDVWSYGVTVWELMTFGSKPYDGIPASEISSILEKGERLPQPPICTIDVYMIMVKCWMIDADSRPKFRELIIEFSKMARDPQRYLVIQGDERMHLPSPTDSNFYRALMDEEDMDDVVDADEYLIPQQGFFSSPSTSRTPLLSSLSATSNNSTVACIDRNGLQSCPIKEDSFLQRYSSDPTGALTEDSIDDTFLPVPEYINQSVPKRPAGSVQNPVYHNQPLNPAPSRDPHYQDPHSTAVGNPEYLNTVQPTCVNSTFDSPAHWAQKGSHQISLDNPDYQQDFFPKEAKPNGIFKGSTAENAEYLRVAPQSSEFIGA
EGFR Ex19delT790M, sequence (P00533 with tags, fused parts or gaps DEL746-750/T790M): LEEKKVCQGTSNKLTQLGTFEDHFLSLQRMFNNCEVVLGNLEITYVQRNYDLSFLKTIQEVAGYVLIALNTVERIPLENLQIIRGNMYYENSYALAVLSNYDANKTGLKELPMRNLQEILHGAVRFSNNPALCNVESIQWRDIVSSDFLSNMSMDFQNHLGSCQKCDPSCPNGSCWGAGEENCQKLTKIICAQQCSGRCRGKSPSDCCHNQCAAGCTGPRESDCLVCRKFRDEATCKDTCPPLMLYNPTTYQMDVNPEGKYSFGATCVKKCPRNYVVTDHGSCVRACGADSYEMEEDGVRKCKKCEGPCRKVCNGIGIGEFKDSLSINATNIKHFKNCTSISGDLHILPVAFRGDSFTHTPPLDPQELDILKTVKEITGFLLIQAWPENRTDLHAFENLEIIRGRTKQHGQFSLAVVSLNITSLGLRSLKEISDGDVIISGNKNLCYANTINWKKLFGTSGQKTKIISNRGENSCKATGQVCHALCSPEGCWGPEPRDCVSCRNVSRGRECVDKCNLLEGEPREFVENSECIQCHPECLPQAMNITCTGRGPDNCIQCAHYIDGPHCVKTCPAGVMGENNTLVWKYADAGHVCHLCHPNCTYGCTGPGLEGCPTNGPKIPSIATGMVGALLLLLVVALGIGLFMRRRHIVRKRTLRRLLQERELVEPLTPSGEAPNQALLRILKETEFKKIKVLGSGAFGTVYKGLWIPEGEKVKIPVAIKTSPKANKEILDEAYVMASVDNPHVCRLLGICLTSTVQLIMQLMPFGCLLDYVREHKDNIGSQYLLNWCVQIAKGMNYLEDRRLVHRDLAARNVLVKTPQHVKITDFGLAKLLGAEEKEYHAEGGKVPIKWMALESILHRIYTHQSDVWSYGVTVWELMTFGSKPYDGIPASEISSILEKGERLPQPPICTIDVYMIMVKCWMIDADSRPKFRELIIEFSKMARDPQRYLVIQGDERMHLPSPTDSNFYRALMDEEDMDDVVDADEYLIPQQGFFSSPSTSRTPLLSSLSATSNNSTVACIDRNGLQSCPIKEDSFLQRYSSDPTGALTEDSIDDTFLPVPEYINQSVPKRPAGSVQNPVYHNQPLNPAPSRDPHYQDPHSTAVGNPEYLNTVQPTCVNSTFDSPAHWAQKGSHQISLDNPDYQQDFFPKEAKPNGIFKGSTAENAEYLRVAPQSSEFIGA
EGFR L718Q, sequence (P00533 25-1210 L718Q): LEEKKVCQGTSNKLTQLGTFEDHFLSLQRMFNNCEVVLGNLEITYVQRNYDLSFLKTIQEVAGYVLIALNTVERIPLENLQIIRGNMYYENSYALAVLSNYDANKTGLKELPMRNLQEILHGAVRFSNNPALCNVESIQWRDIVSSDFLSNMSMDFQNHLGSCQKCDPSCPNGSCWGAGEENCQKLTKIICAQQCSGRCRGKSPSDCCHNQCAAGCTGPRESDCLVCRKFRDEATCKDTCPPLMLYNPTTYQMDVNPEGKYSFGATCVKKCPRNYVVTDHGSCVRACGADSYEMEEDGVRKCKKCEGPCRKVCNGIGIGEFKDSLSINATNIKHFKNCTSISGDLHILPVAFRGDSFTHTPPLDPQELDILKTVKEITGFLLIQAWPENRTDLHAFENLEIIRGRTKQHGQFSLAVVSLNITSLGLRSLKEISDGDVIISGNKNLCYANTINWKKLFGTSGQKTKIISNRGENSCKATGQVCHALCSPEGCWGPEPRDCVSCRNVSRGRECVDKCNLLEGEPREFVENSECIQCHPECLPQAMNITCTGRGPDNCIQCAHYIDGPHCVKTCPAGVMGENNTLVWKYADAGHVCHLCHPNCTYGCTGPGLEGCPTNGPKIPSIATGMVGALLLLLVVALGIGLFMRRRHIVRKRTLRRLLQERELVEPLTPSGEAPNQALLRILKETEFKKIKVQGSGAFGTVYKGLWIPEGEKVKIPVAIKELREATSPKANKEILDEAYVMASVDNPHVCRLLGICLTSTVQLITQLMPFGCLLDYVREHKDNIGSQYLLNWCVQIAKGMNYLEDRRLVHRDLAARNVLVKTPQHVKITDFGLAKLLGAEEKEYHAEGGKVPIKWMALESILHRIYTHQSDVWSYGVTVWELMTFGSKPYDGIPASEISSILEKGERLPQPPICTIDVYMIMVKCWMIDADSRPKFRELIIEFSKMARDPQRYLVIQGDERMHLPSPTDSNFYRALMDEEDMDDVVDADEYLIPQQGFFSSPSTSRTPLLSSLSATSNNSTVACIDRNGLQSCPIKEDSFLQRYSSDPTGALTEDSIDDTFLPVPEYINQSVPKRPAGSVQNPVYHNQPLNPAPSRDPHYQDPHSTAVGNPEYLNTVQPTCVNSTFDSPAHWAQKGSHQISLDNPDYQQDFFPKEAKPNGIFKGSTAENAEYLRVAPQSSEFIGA

C=CC(=O)N1CC[C@@H](Oc2nc(Nc3ccc(N4CCC(N5CCN(C)CC5)CC4)cc3)c(C(N)=O)nc2CC)C1 [Naquotinib] gave an IC50 (EGFR Ex19del/L792H) of 0.00394 µM, an IC50 (EGFR L858R G796S) of 0.423 µM and an IC50 (EGFR L858R T790M V843I) of 0.00205 µM. It also gave an IC50 (EGFR Ex19del/T790M/G724S) of 0.00384 µM, an IC50 (EGFR L858R/L792H) of 0.0343 µM and an IC50 (EGFR Ex19delT790M) of 0.00141 µM. For the same molecule, the IC50 (EGFR E709A) was 0.255 µM, the IC50 (EGFR L718Q) was 0.734 µM and the IC50 (EGFR D770insNPG) was 0.175 µM.
